Assay in all cases: NCI tumour cell line growth inhibition, 48 h
Assay [1] deals with DMS-114.
Assay [2] relates to KM-20L2.
For assay [3], the system named is M19-MEL.
Assay [4] has as its system SNB-78.
The test system of assay [5] is XF498.
Assay [6] has as its system HOP-18.
Assay [7] concerns LXFL 529.
The test system of assay [8] is DLD-1.
The test system of assay [9] is RXF 631.

The structures appear in SMILES notation.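 Cells were grown in 96-well plates and exposed to each compound for 48 hours at five concentrations; endpoints were interpolated linearly between bracketing concentrations, or set to the highest concentration if not reached. The concentration for 50% growth inhibition is given as GI50.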 Active and inactive are the calls of the source. Cut-off read from the data, not from the text of the source: active = GI50 up to about 1.1 µM and inactive = higher.

Consider `COc1ccccc1/C=C(\C#N)C(=O)c1ccccc1`, for which the GI50 in [1], in [2], in [3], in assay [4] and in assay [5] was > 100 µM (inactive) in each case.

As for `C[C@]12Cc3conc3C(O)=C1CC[C@@H]1C2CC[C@@]2(C)C1CC[C@@H]2O` (stereo partly drawn), the GI50 in [6] is 41 µM (inactive); in assay [2], 29.5 µM (inactive); in assay [7], 15 µM (inactive); in assay [3], 11.7 µM (inactive); in assay [4], 22.2 µM (inactive); in [5], 15 µM (inactive).

Consider `CC(=O)Oc1ccc2c(=O)c(C(C)=O)coc2c1`, for which the GI50 was > 100 µM (inactive) in [2]; > 100 µM (inactive) in [7]; > 100 µM (inactive) in assay [3]; 80 µM (inactive) in [4]; 83.9 µM (inactive) in assay [5].

In the case of `Cc1nn(C)c(=S)n(C)c1=O`, the GI50 in assay [8] was 3.16 µM (inactive); in assay [1], 0.269 µM (active); in assay [6], 0.43 µM (active); in assay [2], 24.9 µM (inactive); in assay [7], 0.515 µM (active); in [3], 0.624 µM (active). In addition, the figures for the GI50 in assay [4] and in assay [5] were 3.18 µM (inactive) and 1.15 µM (inactive), respectively.

`COc1ccc2c(c1OCC(=O)O)C(=O)C(CCC(=O)O)CC2` (stereo not drawn): the GI50 in assay [8], in assay [1], in assay [6], in assay [2], in [7] and in assay [3] was > 100 µM (inactive) throughout. Further, the figures for the GI50 in assay [9], in assay [4] and in assay [5] were > 100 µM (inactive), > 100 µM (inactive) and 71.1 µM (inactive), respectively.

Turning to `CC(=O)O[C@]1(C)CCC2C(C)C(=O)OC2C2C(C)[C@@H](O)CC21` (stereo partly drawn), the GI50 in [8] was 41.4 µM (inactive); in assay [6] it was 40.6 µM (inactive); in assay [2], 29.3 µM (inactive); in assay [7], 21.7 µM (inactive); in assay [3] it was 23.2 µM (inactive); in assay [4], 74 µM (inactive).

Take `O=C(O)CCNS(=O)(=O)c1ccc2ccccc2c1`: the GI50 in assay [8], in assay [6], in [2], in assay [7], in assay [3] and in assay [5] was > 100 µM (inactive) in each case.

Turning to `O=C1C(=O)N(C2C3CC4CC(C3)CC2C4)C(=O)C(=O)C1c1nc2ccccc2o1` (stereo not drawn), the GI50 is 37.3 µM (inactive) in assay [8]; 19.4 µM (inactive) in assay [1]; 54.2 µM (inactive) in [6]; 82 µM (inactive) in [2]; 46.9 µM (inactive) in [7]; 55 µM (inactive) in assay [3]. Further, the GI50 in [9] is > 100 µM (inactive); in assay [4], > 100 µM (inactive); in assay [5], 74 µM (inactive).

Turning to `O=c1[nH]n2c(=O)cc[nH]c2c1-c1nnns1`, the GI50 in [8], in [1], in assay [2], in assay [7], in assay [3] and in [4] was > 100 µM (inactive) each time. Also, in assay [5], the GI50 was > 100 µM (inactive).

Consider `Clc1ccc2c(NCCCCCCNc3ccnc4cc(Cl)ccc34)ccnc2c1`, for which the GI50 in assay [8] was 3.03 µM (inactive); in assay [1], 1.8 µM (inactive); in [2], 1.99 µM (inactive); in [7], 2.33 µM (inactive); in [3], 3.13 µM (inactive); in [9] it was 2.44 µM (inactive). The results for the GI50 in [4] and in assay [5] were 1.86 µM (inactive) and 1.57 µM (inactive), respectively.

In the case of `O=c1c2c(nc3n1CCC3)sc1c(O)c(Br)ccc12`, the GI50 in assay [8] is 27.7 µM (inactive); in assay [1], 16.3 µM (inactive); in assay [6] it was > 100 µM (inactive); in assay [2], 13.5 µM (inactive); in assay [3], 16.3 µM (inactive); in assay [4], 33.3 µM (inactive). Moreover, the GI50 in [5] is 21.5 µM (inactive).

In the case of `O=C(O)CCC1(Br)CCCCC(Br)C1=O` (stereo not drawn), the GI50 is > 100 µM (inactive) in assay [1]; 32.8 µM (inactive) in [6]; > 100 µM (inactive) in [2]; > 100 µM (inactive) in [7]; > 100 µM (inactive) in assay [3]; > 100 µM (inactive) in assay [4]. The GI50 in assay [5] was > 100 µM (inactive).

Regarding `Cc1ccc(/C=N/C23CC4CC(CC(C4)C2)C3)cc1`, the GI50 in assay [1] was 27.5 µM (inactive); in [2], > 100 µM (inactive); in assay [3] it was > 100 µM (inactive); in [4] it was > 100 µM (inactive); in [5] it was 83 µM (inactive).

As to `CC(=O)Nc1ccc(C(=O)N2N=C(C)/C(=C/c3ccccc3O)C2=O)cc1`, the GI50 in [8] is > 100 µM (inactive); in assay [1] it was > 100 µM (inactive); in assay [6] it was 49.3 µM (inactive); in [3], > 100 µM (inactive); in [4], > 100 µM (inactive); in assay [5], > 100 µM (inactive).

`NCCn1cnc2nc(NC(=O)c3ccccc3)[nH]c(=O)c21`: the GI50 in assay [8], in assay [1], in assay [6], in [2], in assay [7] and in assay [3] was > 100 µM (inactive) throughout. For the same molecule, the GI50 in assay [9] and in [4] was > 100 µM (inactive) in each case.

In the case of `CCC1(O)C(=O)OCc2c1cc1n(c2=O)Cc2cc3cc4c(cc3nc2-1)OCO4` (stereo not drawn), the GI50 in assay [8] is 0.0759 µM (active); in [1], < 0.01 µM (active); in assay [6], < 0.01 µM (active); in assay [2] it was 0.0137 µM (active); in [7], 0.0617 µM (active); in assay [3], < 0.01 µM (active). The GI50 in assay [9] is 0.0176 µM (active); in assay [4] it was 3.37 µM (inactive); in assay [5] it was < 0.0185 µM (active).

Turning to `C/C(=N\NC(N)=O)c1sc(-c2nc(C)c(/C(C)=N/NC(N)=O)s2)nc1C`, the GI50 in assay [8] is 46.6 µM (inactive); in [6] it was > 100 µM (inactive); in [2], 49.3 µM (inactive); in assay [7] it was > 100 µM (inactive); in assay [3] it was > 100 µM (inactive); in assay [4], > 100 µM (inactive). The GI50 in assay [5] is > 100 µM (inactive).

As to `Cc1ccc(S(=O)(=O)c2ccc(N)cc2)cc1`, the GI50 in assay [8], in [2], in assay [7], in [3], in [9] and in assay [4] was > 100 µM (inactive) throughout. Also, the GI50 in [5] was > 100 µM (inactive).

In the case of `CCCCCCCCC(=O)NCCN(CCN)C(=O)CCCCCCCC`, the GI50 in assay [8] was 5.37 µM (inactive); in [1], 4.79 µM (inactive); in assay [6] it was 16.7 µM (inactive); in assay [2], 5.04 µM (inactive); in [7], 3.36 µM (inactive); in assay [3], 5.74 µM (inactive). The GI50 in assay [9] is 4.08 µM (inactive); in assay [4], 10.4 µM (inactive); in [5], 2.42 µM (inactive).

Turning to `COc1cccc(NC(=O)CSc2nnc(-c3ccc(/N=C\c4ccc(Cl)cc4)cc3)o2)c1`, the GI50 in assay [1] was 20.5 µM (inactive); in assay [6], 40 µM (inactive); in [2] it was 16.9 µM (inactive); in assay [7] it was 19.8 µM (inactive); in assay [3], 22.8 µM (inactive); in assay [4] it was 40.3 µM (inactive). In assay [5], the GI50 was 19.2 µM (inactive).

Turning to `CCC(O)C1Cc2c(C)cc3c(c2O1)C(=O)c1ccccc1C3=O` (stereo not drawn), the GI50 was 42 µM (inactive) in [8]; 25.4 µM (inactive) in [1]; 17.2 µM (inactive) in assay [6]; 35.2 µM (inactive) in assay [2]; 28.8 µM (inactive) in assay [7]; 41.7 µM (inactive) in assay [3]. Besides, the GI50 in assay [4] was 33.2 µM (inactive); in [5] it was 14.3 µM (inactive).

Turning to `COc1cc(/C=C2\CCC/C(=C\c3ccc(O)c(OC)c3)C2=O)ccc1O` [CYCLOVALONE], the GI50 is 1.75 µM (inactive) in [8]; 1.77 µM (inactive) in assay [1]; 2.74 µM (inactive) in [6]; 15.2 µM (inactive) in assay [2]; 1.85 µM (inactive) in [7]; 1.86 µM (inactive) in assay [3]. The GI50 in [4] was 2.75 µM (inactive); in assay [5], 5.7 µM (inactive).

`Cc1nc2c(n1-c1ccc(Br)cc1)C(=O)c1ccccc1C2=O`: the GI50 is 7.59 µM (inactive) in assay [8], 26 µM (inactive) in assay [1], 2.06 µM (inactive) in assay [9] and 14.6 µM (inactive) in [4].

`c1nc2cscc2c2cscc12`: the GI50 in assay [1], in assay [7], in [3], in assay [4] and in [5] was > 100 µM (inactive) throughout.

For `O=[N+]([O-])c1cc(I)cc(/C=N/NS(=O)(=O)c2ccc(Cl)cc2)c1O`, the GI50 in assay [8] was 26 µM (inactive); in [6] it was 19.1 µM (inactive); in [2], 36 µM (inactive); in assay [7], 19.4 µM (inactive); in assay [3], 25.2 µM (inactive); in assay [9], 22.7 µM (inactive). Further, the GI50 in assay [4] is 27.5 µM (inactive).

`CC(C)(C)OC(=O)NCC(=O)OCc1ccccc1`: the GI50 in assay [8], in assay [1], in assay [7], in assay [3], in assay [4] and in assay [5] was > 100 µM (inactive) in each case.

For the molecule `COc1cc(Cc2nccc3cc(OC)c(OC)cc23)c(C(C)=O)cc1OC`, the GI50 in [8] is 136 µM (inactive); in [1], 5.94 µM (inactive); in assay [6], > 300 µM (inactive); in assay [2], 56.9 µM (inactive); in assay [7], 25.5 µM (inactive); in assay [3], 64.9 µM (inactive). For the same molecule, the GI50 is > 750 µM (inactive) in [9], 74.6 µM (inactive) in [4] and 12.2 µM (inactive) in assay [5].
